Values quoted from earlier work, collected in patent US6689595B1, “Crystallization and structure determination of Staphylococcus aureus thymidylate kinase” (Pharmacia & Upjohn Company, priority 1999, dated 2004).
pKd: −log10 of the molar value.

Molecular target: E. coli TMK (Escherichia coli, UniProt P0A720)
Settings: from A. Lavie et al. 1998

E. coli TMK, sequence (P0A720 whole entry): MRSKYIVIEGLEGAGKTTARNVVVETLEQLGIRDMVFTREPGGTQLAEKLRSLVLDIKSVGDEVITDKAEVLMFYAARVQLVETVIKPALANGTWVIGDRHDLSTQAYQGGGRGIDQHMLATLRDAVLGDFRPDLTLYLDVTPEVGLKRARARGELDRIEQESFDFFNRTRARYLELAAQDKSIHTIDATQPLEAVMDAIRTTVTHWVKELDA

Q: With `Cc1cn([C@H]2C[C@H](O)[C@@H](COP(=O)(O)OP(=O)(O)OP(=O)(O)OP(=O)(O)OP(=O)(O)OC[C@H]3O[C@@H](n4cnc5c(N)ncnc54)[C@H](O)[C@@H]3O)O2)c(=O)[nH]c1=O` [AP5T] as the compound, how does the pKd read?
A: 7.70
